Target: T1, PASK (Invitrogen) (Homo sapiens, UniProt Q96RG2)
T1 construct: IC50 Kinase Domain; purchased Invitrogen
Assay: PAS Kinase FRET Assay
Format: biochemical
Conditions: PAS kinase TR-FRET assay (665 nm/615 nm), 2 hours at 25° C.; read-out: IC50 Kinase Domain
Text: Biochemical Assay for hPASK Activity
The aim of the FRET assay is to determine the inhibition potential of test compounds on targeted kinase. This assay platform provides a homogenous screening method for measuring kinase activity by quantitating the amount of phospho-substrate in solution following a kinase reaction.
In the presence of kinase and ATP, the Ulight-peptide is phosphorylated and captured by an anti-phospho-substrate antibody, which brings the Eu chelate donor and Ulight acceptor dyes into close proximity.
Titration of kinase at 1 mM ATP was achieved via the following protocol. […] The contents of the plate were incubated at RT for 1 h. The reaction was stopped by adding 5 μl of stop solution to each test well followed by mixing and incubation at RT for 10 minutes. 5 μl of detection mix (detection antibody diluted in detection buffer) was added; the contents of the plate were mixed and then incubated in the dark for 1 hour at RT. […] The results were graphed to calculate the EC50.
Titration of ATP at the EC50 concentration of kinase to determine ATP Km,app. was performed using the following method. […] The contents of the plate were and incubated at RT for 1 h. The reaction was stopped by adding 5 μl of stop solution to each test well followed by mixing and incubation at RT for 10 minutes. […] (detection antibody diluted in detection buffer) was added; the contents of the plate were mixed and then incubated in the dark for 1 hour at RT. […] The results were graphed to calculate the EC50 as the ATP Km,app.
Compound screening was done via the following method. 10 mM stock solution of test compound in DMSO was prepared by dissolving test compound in DMSO at RT for 1 hour, and then sonicating at 100% output for 8 minutes. If compound is not soluble under this condition, it was diluted to 3 mM. Kinase reaction buffer was prepared containing 10 mM MgCl2, 50 mM HEPES, 1 mM EGTA, 0.01% TWEEN-20, 2 mM DTT. […] As a positive control, 2.5 μl of positive compound was added to assay wells, and 2.5 μl of DMSO to assay wells as vehicle control. Kinase solution was prepared in reaction buffer at 2× final assay concentration. Kinase solution (5 μl) was added to each well of the assay plate. The substrate and ATP solution was prepared in kinase reaction buffer at 4× final assay concentration. The kinase reaction was started by adding 2.5 μl of substrate+ATP mix solution to each well of the assay plate. The plate is mixed on a plate shaker; then covered and allowed to react for 2 hours in the dark at 25° C. without shaking. The reaction was stopped by adding 5 μl of stop solution to each test well followed by mixing and incubation at RT for 10 minutes in the dark. 5 μl of detection mix (detection antibody diluted in detection buffer) was added; the contents of the plate were mixed and then incubated in the dark for 1 hour at RT.

T1 sequence (Q96RG2 999-1251 limits assumed): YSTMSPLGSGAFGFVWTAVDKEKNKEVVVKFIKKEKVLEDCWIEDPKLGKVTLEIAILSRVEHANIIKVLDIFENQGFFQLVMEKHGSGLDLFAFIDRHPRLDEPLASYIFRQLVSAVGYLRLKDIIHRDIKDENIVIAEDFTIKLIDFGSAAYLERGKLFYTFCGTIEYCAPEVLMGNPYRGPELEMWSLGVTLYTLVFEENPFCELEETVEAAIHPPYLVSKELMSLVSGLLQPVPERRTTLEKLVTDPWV

Structure (SMILES)	IC50 [µM]
CC(C)N(C)c1nc2cc(C(=O)O)ccc2nc1-c1ccc2ncccc2c1 [Example 46, 3-(Isopropyl(methyl)amino)-2-(quinolin-6-yl)quinoxaline-6-carboxylic acid]	< 10
C[C@H]1CCCN1c1nc2cc(C(=O)O)ccc2nc1-c1ccc2[nH]ncc2c1 [Example 47, 2-(1H-Indazol-5-yl)-3-[(2S)-2-methylpyrrolidin-1-yl]quinoxaline-6-carboxylic acid]	< 10
CN(c1nc2cc(C(=O)O)ccc2nc1-c1cc2ccc(F)cc2o1)C1CC1 [Example 49, 3-(Cyclopropyl(methyl)amino)-2-(6-fluorobenzofuran-2-yl)quinoxaline-6-carboxylic acid]	< 10
CC(C)N(C)c1nc2cc(C(=O)O)ccc2nc1-c1ccc2oncc2c1 [Example 50, 2-(1,2-Benzoxazol-5-yl)-3-[methyl(propan-2-yl)amino]quinoxaline-6-carboxylic acid]	< 10
O=C(O)c1ccc2nc(-c3cc4ccccc4s3)c(N3CCCCC3)nc2c1 [Example 53, 2-(Benzo[b]thiophen-2-yl)-3-(piperidin-1-yl)quinoxaline-6-carboxylic acid]	< 10
O=C(O)c1ccc2nc(-c3cc4ccccc4s3)c(N3CCCCCC3)nc2c1 [Example 54, 3-(Azepan-1-yl)-2-(benzo[b]thiophen-2-yl)quinoxaline-6-carboxylic acid]	< 10
CC(C)N(C)c1nc2cc(C(=O)O)ccc2nc1-c1ccc2scnc2c1 [Example 56, 2-(Benzo[d]thiazol-5-yl)-3-(isopropyl(methyl)amino)quinoxaline-6-carboxylic acid]	< 10
CC(C)N(C)c1nc2cc(C(=O)O)ccc2nc1-c1nc2ccccc2s1 [Example 58, 2-(1,3-Benzothiazol-2-yl)-3-[methyl(propan-2-yl)amino]quinoxaline-6-carboxylic acid]	< 10
C[C@H]1CCCN1c1nc2cc(C(=O)O)ccc2nc1-c1nc2ccccc2s1 [Example 59, 2-(1,3-Benzothiazol-2-yl)-3-[(2S)-2-methylpyrrolidin-1-yl]quinoxaline-6-carboxylic acid]	< 10
CC(C)N(C)c1nc2cc(C(=O)O)ccc2nc1-c1ccc2nccnc2c1 [Example 60, 3-(isopropyl(methyl)amino)-2,7′-biquinoxaline-6-carboxylic acid]	< 10
O=C(O)c1ccc2nc(-c3cc4cc(F)ccc4o3)c(N3CCCC3)nc2c1 [Example 62, 2-(5-Fluoro-1-benzofuran-2-yl)-3-(pyrrolidin-1-yl)quinoxaline-6-carboxylic acid]	< 10
O=C(O)c1ccc2nc(-c3ccc4[nH]ccc4c3)c(N3CCCCC3)nc2c1 [Example 65, 2-(1H-Indol-5-yl)-3-(piperidin-1-yl)quinoxaline-6-carboxylic acid]	< 10
COC[C@H]1CCCN1c1nc2cc(C(=O)O)ccc2nc1-c1ccc2[nH]ccc2c1 [Example 67, 2-(1H-Indol-5-yl)-3-[(2R)-2-(methoxymethyl)pyrrolidin-1-yl]quinoxaline-6-carboxylic acid]	< 10
CC(C)Nc1nc2cc(C(=O)O)ccc2nc1-c1cc2ccccc2o1 [Example 70, 2-(1-Benzofuran-2-yl)-3-[(propan-2-yl)amino]quinoxaline-6-carboxylic acid]	< 10
C[C@H]1CCCN1c1nc2cc(C(=O)O)ccc2nc1-c1ccoc1 [Example 78, 2-(Furan-3-yl)-3-[(2S)-2-methylpyrrolidin-1-yl]quinoxaline-6-carboxylic acid]	< 10
C[C@H]1CCCN1c1nc2cc(C(=O)O)ccc2nc1-c1coc2ccccc12 [Example 82, 2-(1-Benzofuran-3-yl)-3-[(2S)-2-methylpyrrolidin-1-yl]quinoxaline-6-carboxylic acid]	< 10
CC(C)N(C)c1nc2cc(C(=O)O)ccc2nc1-c1occc1-c1ccccc1 [Example 83, 3-[Methyl(propan-2-yl)amino]-2-(3-phenylfuran-2-yl)quinoxaline-6-carboxylic acid]	< 10
CC(C)N(C)c1nc2cc(C(=O)O)ccc2nc1-c1ccc(-c2ccc(F)cc2)o1 [Example 84, 2-[5-(4-Fluorophenyl)furan-2-yl]-3-[methyl(propan-2-yl)amino]quinoxaline-6-carboxylic acid]	< 10
CC(C)N(C)c1nc2cc(C(=O)O)ccc2nc1-c1cnn(C)c1 [Example 90, 3-[Methyl(propan-2-yl)amino]-2-(1-methyl-1H-pyrazol-4-yl)quinoxaline-6-carboxylic acid]	< 10
CC(C)N(C)c1nc2cc(C(=O)O)ccc2nc1-c1cnn(-c2ccccc2)c1 [Example 91, 3-[Methyl(propan-2-yl)amino]-2-(1-phenyl-1H-pyrazol-4-yl)quinoxaline-6-carboxylic acid]	< 10
C[C@H]1CN(c2ccccn2)CCN1c1nc2cc(C(=O)O)ccc2nc1-c1ccc2[nH]ncc2c1 [Example 92, (S)-2-(1H-indazol-5-yl)-3-(2-methyl-4-(pyridin-2-yl)piperazin-1-yl)quinoxaline-6-carboxylic acid]	< 10
CC(C)N(C)c1nc2cc(C(=O)O)ccc2nc1-c1ccc2[nH]nnc2c1 [Example 94, 2-(1H-Benzo[d][1,2,3]triazol-5-yl)-3-(isopropyl(methyl)amino)quinoxaline-6-carboxylic acid]	< 10
CC(C)N(C)c1nc2cc(C(=O)O)ccc2nc1-c1ccc2c(c1)nnn2C [Example 95, 3-(Isopropyl(methyl)amino)-2-(1-methyl-1H-benzo[d][1,2,3]triazol-5-yl)quinoxaline-6-carboxylic acid]	> 10
C[C@H]1CCCN1c1nc2cc(C(=O)O)ccc2nc1-c1ccc2[nH]nnc2c1 [Example 96, (S)-2-(1H-Benzo[d][1,2,3]triazol-5-yl)-3-(2-methylpyrrolidin-1-yl)quinoxaline-6-carboxylic acid]	< 10
CN(Cc1ccccc1)c1nc2cc(C(=O)O)ccc2nc1-c1ccc2[nH]ncc2c1 [Example 97, 3-(Benzyl(methyl)amino)-2-(1H-indazol-5-yl)quinoxaline-6-carboxylic acid]	< 10
C[C@@H](c1ccccc1)N(C)c1nc2cc(C(=O)O)ccc2nc1-c1ccc2[nH]ncc2c1 [Example 98, (S)-2-(1H-Indazol-5-yl)-3-(methyl(1-phenylethyl)amino)quinoxaline-6-carboxylic acid]	< 10
Cc1cc2cc(-c3nc4ccc(C(=O)O)cc4nc3N3CCN(c4ccccn4)C[C@@H]3C)ccc2[nH]1 [Example 99, (S)-2-(2-Methyl-1H-indol-5-yl)-3-(2-methyl-4-(pyridin-2-yl)piperazin-1-yl)quinoxaline-6-carboxylic acid]	< 10
O=C(O)c1ccc2nc(-c3ccc(F)cc3)c(N3CCC[C@@H]3C(F)(F)F)nc2c1 [Example 101, (R)-2-(4-Fluorophenyl)-3-(2-(trifluoromethyl)pyrrolidin-1-yl)quinoxaline-6-carboxylic acid]	< 10
CN(c1nc2cc(C(=O)O)ccc2nc1-c1ccc(F)cc1)C1CCOCC1 [Example 102, 2-(4-Fluorophenyl)-3-(methyl(tetrahydro-2H-pyran-4-yl)amino)quinoxaline-6-carboxylic acid]	< 10
CN(c1nc2cc(C(=O)O)ccc2nc1-c1ccc(F)cc1)C1CCNCC1 [Example 103, 2-(4-Fluorophenyl)-3-(methyl(piperidin-4-yl)amino)quinoxaline-6-carboxylic acid]	< 10

Reference: patent publication US8912188B2, “Substituted quinoxaline carboxylic acids for the inhibition of PASK” (BioEnergenix, LLC, priority 2011, dated 2014)
